8 compounds from patent US12583849B2, “KCNT1 inhibitors and methods of use” (Praxis Precision Medicines, Inc., priority 2020, dated 2026) can be followed below.

Some results are limits rather than exact numbers.

In this assay the target is T1, KCNT1 (KNa1.1, Slack) (Homo sapiens, UniProt Q5JUK3).
T1 construct: expressed in transfected cells; host or cells: HEK-TREX (tetracycline-inducible cell line)
T1 sequence (Q5JUK3 1-1230): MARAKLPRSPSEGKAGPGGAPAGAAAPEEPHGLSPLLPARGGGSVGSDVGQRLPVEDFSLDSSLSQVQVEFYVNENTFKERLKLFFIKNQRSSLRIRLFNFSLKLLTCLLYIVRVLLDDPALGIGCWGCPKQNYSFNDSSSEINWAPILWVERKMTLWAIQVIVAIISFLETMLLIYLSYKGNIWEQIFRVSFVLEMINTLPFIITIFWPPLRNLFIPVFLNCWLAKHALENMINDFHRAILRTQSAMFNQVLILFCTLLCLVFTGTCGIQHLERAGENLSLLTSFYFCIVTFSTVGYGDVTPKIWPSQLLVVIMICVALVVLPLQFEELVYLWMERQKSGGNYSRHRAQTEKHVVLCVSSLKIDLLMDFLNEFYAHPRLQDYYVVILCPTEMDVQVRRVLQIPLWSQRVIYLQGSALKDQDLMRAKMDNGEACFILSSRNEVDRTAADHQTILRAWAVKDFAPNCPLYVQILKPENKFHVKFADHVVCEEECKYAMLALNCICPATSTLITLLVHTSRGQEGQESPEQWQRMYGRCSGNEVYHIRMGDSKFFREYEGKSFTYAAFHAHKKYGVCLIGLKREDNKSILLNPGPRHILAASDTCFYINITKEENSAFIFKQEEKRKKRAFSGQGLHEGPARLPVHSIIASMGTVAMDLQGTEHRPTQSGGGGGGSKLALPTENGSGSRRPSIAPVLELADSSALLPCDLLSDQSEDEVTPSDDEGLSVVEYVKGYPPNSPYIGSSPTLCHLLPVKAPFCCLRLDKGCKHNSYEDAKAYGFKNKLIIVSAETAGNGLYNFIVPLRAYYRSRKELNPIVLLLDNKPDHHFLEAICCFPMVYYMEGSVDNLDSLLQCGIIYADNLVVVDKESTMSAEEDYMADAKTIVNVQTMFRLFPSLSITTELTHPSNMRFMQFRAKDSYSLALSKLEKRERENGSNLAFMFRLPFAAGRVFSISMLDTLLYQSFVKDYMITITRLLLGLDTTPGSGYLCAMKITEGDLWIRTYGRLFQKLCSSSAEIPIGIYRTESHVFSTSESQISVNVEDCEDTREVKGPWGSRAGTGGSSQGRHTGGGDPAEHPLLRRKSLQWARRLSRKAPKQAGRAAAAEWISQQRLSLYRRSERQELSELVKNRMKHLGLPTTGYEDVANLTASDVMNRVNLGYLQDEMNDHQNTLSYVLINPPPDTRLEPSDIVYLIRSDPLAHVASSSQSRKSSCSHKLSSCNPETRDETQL
Put plainly: KCNT1-WT-Basal Patch Clamp Assay. It counts as cell-based. As to conditions: tetracycline inducible cell line (HEK-TREX); SyncroPatch 384PE automated patch clamp, perforated patch mode, room temperature, step from -80 mV to 0 mV. The method in brief: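 Tetracycline-inducible HEK-TREX cells expressing human KCNT1, recorded by automated perforated patch clamp (10 μM escin) at room temperature, with 4 mM external K+ at pH 7.4. Mean current taken during a 100 ms step from −80 mV to 0 mV, averaged over 3 sweeps. IC50 from Hill fit of % inhibition; otherwise % inhibition at top concentration.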

`C[C@H](NC(=O)c1ccc(Br)s1)c1nc(-c2ccnc(C3CC3)c2)no1` [Compound I-57, (S)-5-bromo-N-(1-(3-(2-cyclopropylpyridin-4-yl)-1,2,4-oxadiazol-5-yl)ethyl)thiophene-2-carboxamide] returned a 50% inhibitory concentration (IC50) of at most 1000 nM.
In turn, `C[C@H](NC(=O)c1ccnc(C2CC2)c1)c1nc(-c2ccnc(C3CC3)c2)no1` [Compound I-99, (S)-2-cyclopropyl-N-(1-(3-(2-cyclopropylpyridin-4-yl)-1,2,4-oxadiazol-5-yl)ethyl)isonicotinamide] registered an IC50 of at most 1000 nM.
Compound `CC(NC(=O)c1ccc2c(c1)OCCO2)c1nc(-c2cccc(F)c2)no1` (centres unmarked) [Compound I-51, N-[1-[3-(3-fluorophenyl)-1,2,4-oxadiazol-5-yl]ethyl]-2,3-dihydro-1,4-benzodioxine-6-carboxamide] yielded an IC50 of 1000 to 20000 nM.
The compound `C[C@H](NC(=O)C12CCC(CC1)CC2)c1nc(-c2ccnc(C(F)(F)F)c2)no1` [Compound I-59, (S)—N-(1-(3-(2-(trifluoromethyl)pyridin-4-yl)-1,2,4-oxadiazol-5-yl)ethyl)bicyclo[2.2.2]octane-1-carboxamide] gave an IC50 of at most 1000 nM.
The result for `C[C@H](NC(=O)c1ccc(Cl)cc1)c1nc(-c2ccnc(C3CC3)c2)no1` [Compound I-62, (S)-4-chloro-N-(1-(3-(2-cyclopropylpyridin-4-yl)-1,2,4-oxadiazol-5-yl)ethyl)benzamide] reads at most 1000 nM; that for `C[C@H](NC(=O)N1CCOc2ccccc21)c1nc(-c2ccnc(C3CC3)c2)no1` [II-6], at most 1000 nM.
In the case of `C[C@H](NC(=O)CN1CCCCC1)c1nc(-c2ccnc(C(F)(F)F)c2)no1` [Compound I-35, (S)-2-(piperidin-1-yl)-N-(1-(3-(2-(trifluoromethyl)pyridin-4-yl)-1,2,4-oxadiazol-5-yl)ethyl)acetamide], the IC50 is at least 20000 nM.
`Cc1nc(C(F)(F)F)ccc1C(=O)N[C@@H](C)c1nc(-c2ccnc(C3CC3)c2)no1` [Compound I-53, (S)—N-(1-(3-(2-cyclopropylpyridin-4-yl)-1,2,4-oxadiazol-5-yl)ethyl)-2-methyl-6-(trifluoromethyl)nicotinamide]: the IC50 was at most 1000 nM.
